Patent US12043599B2, “Herbicidal compounds” (SYNGENTA PARTICIPATIONS AG, priority 2018, dated 2024)

What was measured:
Type in all cases: in vivo
Conditions in all cases: 250 g/h, evaluated after 13 days
[1] = tested on: Alopecurus myosuroides (ALOMY); assay: Pre-emergence herbicidal glasshouse test, percentage damage
How it was run: (§1)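 A single spray at 250 g/h was given either to soil one day after sowing or to seedlings after eight days' growth. Vehicle was acetone/water (50:50) with 0.5% Tween 20. Thirteen days on, damage was rated in 20% bands, 1 (0-19%) to 5 (80-100%).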

Avena fatua (AVEFA) [2] = assay: as above
How it was run: as §1

[3] = tested on: Echinochloa crus-galli (ECHCG); assay: as above
How it was run: as §1

Lolium perenne (LOLPE) [4] = assay: as above
How it was run: as §1

Setaria faberi (SETFA) [5] = assay: as above
How it was run: as §1

Setaria faberi (SETFA) [6] = assay: Post-emergence herbicidal glasshouse test, percentage damage
How it was run: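 Wheat, barley and Setaria faberi were sprayed post-emergence after 8 days' growth (24/16 °C, 14 h light, 65% humidity) with compound in acetone/water (50:50) containing 0.5% Tween 20, at the indicated rates. On wheat, compounds were also applied with cloquintocet-mexyl at 50 g/ha. Damage was scored after 13 days on a five-point scale (5=80-100% to 1=0-19%).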

[7] = tested on: Alopecurus myosuroides (ALOMY); assay: as above
How it was run: as §1

Avena fatua (AVEFA) [8] = assay: as above
How it was run: as §1

[9] = tested on: Echinochloa crus-galli (ECHCG); assay: as above
How it was run: as §1

Lolium perenne (LOLPE) [10] = assay: as above
How it was run: as §1

Structure (SMILES) | ALOMY PRE percentage damage (five point scale) [1] | AVEFA PRE percentage damage (five point scale) (Avena fatua (AVEFA) [2]) | ECHCG PRE percentage damage (five point scale) [3] | LOLPE PRE percentage damage (five point scale) (Lolium perenne (LOLPE) [4]) | SETFA PRE percentage damage (five point scale) (Setaria faberi (SETFA) [5]) | SETFA POST percentage damage (five point scale) (Setaria faberi (SETFA) [6]) | ALOMY POST percentage damage (five point scale) [7] | AVEFA POST percentage damage (five point scale) (Avena fatua (AVEFA) [8]) | ECHCG POST percentage damage (five point scale) [9] | LOLPE POST percentage damage (five point scale) (Lolium perenne (LOLPE) [10])
CC#Cc1cc(C)c(C2C(=O)CC3(CCN(C(=O)CC#N)CC3)CC2=O)c(OC)c1 [Compound A80] | 5 (5=80-100%) | 5 (5=80-100%) | 5 (5=80-100%) | 5 (5=80-100%) | 5 (5=80-100%) | 5 (5=80-100%) | 5 (5=80-100%) | 5 (5=80-100%) | 5 (5=80-100%) | 5 (5=80-100%)
CC#Cc1cc(C)c(C2C(=O)CC3(CCN([S+]([O-])C(C)(C)C)CC3)CC2=O)c(C)c1 (centres unmarked) [Compound A85] | 5 (5=80-100%) | 3 (3=40-59%) | 5 (5=80-100%) | 5 (5=80-100%) | 5 (5=80-100%) | 4 (4=60-79%) | 5 (5=80-100%) | 5 (5=80-100%) | 5 (5=80-100%) | 5 (5=80-100%)
CC#Cc1cc(C)c(C2C(=O)CC3(CCN(C(=O)NC(=O)c4ccc(C(F)(F)F)cn4)CC3)CC2=O)c(C)c1 [Compound A168] | 4 (4=60-79%) | 4 (4=60-79%) | 5 (5=80-100%) | 4 (4=60-79%) | 5 (5=80-100%) | 4 (4=60-79%) | 4 (4=60-79%) | 4 (4=60-79%) | 5 (5=80-100%) | 4 (4=60-79%)
CC#Cc1cc(C)c(C2=C(OC(=O)c3ccccc3F)CC3(CCN(C(=O)c4ccccc4F)CC3)CC2=O)c(C)c1 [Compound P20] | 5 (5=80-100%) | 3 (3=40-59%) | 5 (5=80-100%) | 5 (5=80-100%) | 5 (5=80-100%) | 5 (5=80-100%) | 5 (5=80-100%) | 5 (5=80-100%) | 5 (5=80-100%) | 5 (5=80-100%)
CC#Cc1cc(C)c(C2C(=O)CC3(CCN(C(=O)Cc4cnc[nH]4)CC3)CC2=O)c(C)c1 [Compound A196] | 3 (3=40-59%) | 4 (4=60-79%) | 5 (5=80-100%) | 5 (5=80-100%) | 5 (5=80-100%) | 5 (5=80-100%) | 5 (5=80-100%) | 5 (5=80-100%) | 5 (5=80-100%) | 5 (5=80-100%)
CC#Cc1cc(C)c(C2C(=O)CC3(CCN(S(=O)(=O)C4CC4)CC3)CC2=O)c(C)c1 [Compound A82] | 5 (5=80-100%) | 5 (5=80-100%) | 5 (5=80-100%) | 5 (5=80-100%) | 5 (5=80-100%) | 5 (5=80-100%) | 5 (5=80-100%) | 5 (5=80-100%) | 5 (5=80-100%) | 5 (5=80-100%)
CC#Cc1cc(C)c(C2=C(OC(=O)OC)CC3(CCN(C(=O)NC(=O)C(C)(C)C)CC3)CC2=O)c(C)c1 [Compound P10] | 5 (5=80-100%) | 5 (5=80-100%) | 5 (5=80-100%) | 5 (5=80-100%) | 5 (5=80-100%) | 5 (5=80-100%) | 5 (5=80-100%) | 5 (5=80-100%) | 5 (5=80-100%) | 5 (5=80-100%)
CC#Cc1cc(C)c(C2C(=O)CC3(CCN(C(=O)COC4CC4)CC3)CC2=O)c(C)c1 [Compound A202] | 5 (5=80-100%) | 5 (5=80-100%) | 5 (5=80-100%) | 5 (5=80-100%) | 5 (5=80-100%) | 5 (5=80-100%) | 5 (5=80-100%) | 5 (5=80-100%) | 5 (5=80-100%) | 5 (5=80-100%)
CC#Cc1cc(C)c(C2C(=O)CC3(CCN(C(=O)COC(C)C)CC3)CC2=O)c(C)c1 [Compound A171] | 5 (5=80-100%) | 5 (5=80-100%) | 5 (5=80-100%) | 5 (5=80-100%) | 5 (5=80-100%) | 5 (5=80-100%) | 5 (5=80-100%) | 5 (5=80-100%) | 5 (5=80-100%) | 5 (5=80-100%)
CC#Cc1cc(C)c(C2C(=O)CC3(CCN(C(=O)CC4OCCO4)CC3)CC2=O)c(C)c1 [Compound A151] | 5 (5=80-100%) | 5 (5=80-100%) | 5 (5=80-100%) | 5 (5=80-100%) | 5 (5=80-100%) | 5 (5=80-100%) | 5 (5=80-100%) | 5 (5=80-100%) | 5 (5=80-100%) | 5 (5=80-100%)
CC#Cc1cc(C)c(C2C(=O)CC3(CCN(C(=O)COCCOC)CC3)CC2=O)c(C)c1 [Compound A147] | 4 (4=60-79%) | 3 (3=40-59%) | 5 (5=80-100%) | 5 (5=80-100%) | 5 (5=80-100%) | 5 (5=80-100%) | 5 (5=80-100%) | 5 (5=80-100%) | 5 (5=80-100%) | 5 (5=80-100%)
CC#Cc1cc(C)c(C2C(=O)CC3(CCN(C(=O)c4ncccn4)CC3)CC2=O)c(C)c1 [Compound A19] | 5 (5=80-100%) | 5 (5=80-100%) | 5 (5=80-100%) | 5 (5=80-100%) | 5 (5=80-100%) | 5 (5=80-100%) | 5 (5=80-100%) | 5 (5=80-100%) | 5 (5=80-100%) | 5 (5=80-100%)
CC#Cc1cc(C)c(C2C(=O)CC3(CCN(C(=O)C4CC(C)=NO4)CC3)CC2=O)c(C)c1 (centres unmarked) [Compound A187] | 4 (4=60-79%) | 5 (5=80-100%) | 5 (5=80-100%) | 5 (5=80-100%) | 5 (5=80-100%) | 5 (5=80-100%) | 5 (5=80-100%) | 5 (5=80-100%) | 5 (5=80-100%) | 5 (5=80-100%)
CC#Cc1cc(C)c(C2=C(OC(=O)OC)CC3(CCN(C(=O)NC(C)=O)CC3)CC2=O)c(C)c1 [Compound P53] | 4 (4=60-79%) | 5 (5=80-100%) | 5 (5=80-100%) | 4 (4=60-79%) | 5 (5=80-100%) | 5 (5=80-100%) | 5 (5=80-100%) | 5 (5=80-100%) | 5 (5=80-100%) | 5 (5=80-100%)
